Each structure is given as a SMILES string. Like-named read-outs stand apart in the source and are kept apart here.

The conditions of assay [1]: reported in the art; cited from earlier work.
Assay [2] has as its system Clostridium autoethanogenum. From the text: A fermentation was started using the general fermentation process with gas and agitation were increased to minimize acetate and maximize ethanol production. Dilution rate and bacterial dilution rate were adjusted by day 4.0 to 2.0 day-^1 and 1.2 day-1, respectively. These values were maintained for the remainder of the fermentation.
On day 14.1 the concentration of B1 in media was decreased to reduce the specific B1 feed rate with all other operational parameters being kept constant.
It has been reported in the art that the limiting concentration of B1 for growth and acetate production is 6.5 μg/g cell produced.

A further assay relates to Clostridium ljungdahlii. The note with it: WO 2002/08438; cited from earlier work.
Assay [3] deals with Clostridium autoethanogenum. The assay is described as follows: Example 1: fermentation with vitamin B5 concentration increased during the run, effect on 2,3-BDO production. The format is cell-based. The protocol: This experiment was carried out according to the general fermentation process described above. […] Dilution rate and bacterial dilution rate were adjusted so that by day 5.0 these were 1.8 day^−1 and 0.85 day^−1, respectively.
On day 8.1 the concentration of vitamin B5 in media was increased 10 fold with all other operational parameters remaining the same. During this time the biomass production rate dropped slightly so accordingly the vitamin B5 feed rate was increased just over tenfold to 2180 μg/g-cell produced. Following the increase in the vitamin B5 concentration, the specific 2,3-BDO production rate and concentration increased with other parameters remaining stable.
This is a surprising result as it is only the specific 2,3-BDO production rate and the concentration of 2,3-BDO that increases while the production rate of other metabolites, e.g. ethanol and biomass remains the same.

Assay [4] concerns Clostridium autoethanogenum. Briefly: Example 3: fermentation with excess vitamin B5 from the start, effect on 2,3-BDO production. The format is cell-based. As for the experimental part: The example above can be compared to results when excess B5 vitamin is present in the fermentation media throughout the fermentation. […] In this case the 2,3-BDO concentration reached 9 g/L with an ethanol:2,3-BDO ratio of 2:1 (FIG. 2), and a CO uptake of 9.4 mol/L/day (FIG. 3). The feed rate of B5 vitamin throughout the fermentation was >2000 μg/g-cell produced. During day 6.0 to 7.0 as the biomass and 2,3-BDO production flattened out the feed rate of B5 vitamin was 2011 μg/g-cell produced. The specific 2,3-BDO production rate was 1.2 g/day per g-biomass, the specific ethanol production rate was 2.4 g/day per g-biomass.

Assay [5] concerns Clostridium autoethanogenum. The assay is described as follows: Example 5: fermentation with vitamin B7 concentration increased then reduced, effect on 2,3-BDO production. Format: cell-based. As for the experimental part: In this example the impact of B7 on the production of 2,3-BDO was tested using a fermentation grown according to the general fermentation process. […] Dilution rate and bacterial dilution rate were adjusted so that by day 8.0 these were 1.8 day^−1 and 0.75 day^−1 respectively. […] The results achieved at that time are summarised below;
On day 8.69 the concentration of B7 in media was increased 10 fold with all other operational parameters being kept constant. During this time the biomass production rate remained stable so the B7 feed rate was increased over tenfold to 980 μg/g cell produced. Following the increase in the B7 feed the specific 2,3-BDO production rate and the concentration of 2,3-BDO increased. The data obtained from days 13-14 are summarised below;
As the 2,3-BDO concentration was reaching a peak (day 14.04) the B7 in the media was reduced 10 fold such that the specific B7 feed rate was reduced back to 90 μg/g cell produced.
This is a surprising result as it is the specific 2,3-BDO production rate and the concentration of 2,3-BDO that increases rather than any other metabolite and or biomass.

Setting [6] is: vitamin B1 feed rate 303 μg/g cell produced, day 10.0-14.0.
[7] abbreviates: vitamin B1 feed rate decreased to 61 μg/g cell produced.
The mark [8] stands for this setting: vitamin B5 feed rate 198 μg/g-cell produced, day 6.0-8.0.
Setting [9] is: vitamin B5 feed rate 2180 μg/g cell produced.
Where [10] appears, read: B5 vitamin feed rate 2011 μg/g-cell produced, day 6.0 to 7.0.
Setting [11] is: B5 vitamin feed rate >2000 μg/g-cell produced throughout the fermentation.
The mark [12] stands for this setting: vitamin B7 feed rate 90 μg/g cell produced, before increase.
Setting [13] is: vitamin B7 feed rate 980 μg/g cell produced, days 13-14.
The mark [14] stands for this setting: vitamin B7 reduced back to 90 μg/g cell produced (after day 14.04).

Consider `Cc1ncc(C[n+]2csc(CCO)c2C)c(N)n1.Cl.[Cl-]` [vitamin B1, Thiamine hydrocloride], for which, in assay [1], the “limiting concentration of B1 for growth and acetate production” value is given as 6.5 μg/g cell produced. Moreover, the “effect of decreasing the B1 concentration on ethanol production” value in assay [2] (B1 feed rate 303 to 61 μg/g cell produced, CO uptake constant) is recorded as “unaffected”. In assay [2] (setting [6]), the “2,3-BDO concentration” value was 3.4 g/L, the Biomass stood at 5.79 g/L, the CO uptake was determined as 8.0 mol/L/day and the Ethanol concentration came out at 16.05 g/L. In assay [2] (setting [6]), the “Specific 2,3-BDO production rate” value is 1.17 g 2,3-BDO/g biomass/day and the “Specific Ethanol production rate” value turned out to be 5.54 g ethanol/g biomass/day. In assay [2] (setting [7]), the “2,3-BDO titre” value was 1.6 g/L, the Biomass came out at 6.75 g/L, the CO uptake is 8.0 mol/L/day and the Ethanol concentration stood at 18.23 g/L. Further, in assay [2] (setting [7]), the “Specific 2,3-BDO production rate” value is listed as 0.47 g 2,3-BDO/g biomass/day and the “Specific Ethanol production rate” value came to 5.4 g ethanol/g biomass/day.
As for `CC(C)(CO)[C@@H](O)C(=O)NCCC(=O)O` [vitamin B5, Pantothenic acid], the “vitamin B5 required for growth” value in the assay with Clostridium ljungdahlii is on record as 50 μg/g biomass produced. In assay [3] (setting [8]), the “2,3-BDO concentration” value is 4.8 g/L, the Acetate concentration is listed as 7.75 g/L, the CO uptake was determined as 8.4 mol/L/day and the Ethanol concentration was found to be 18.69 g/L. In assay [3] (setting [8]), the “Specific 2,3-BDO production rate” value is on record as 0.81 g 2,3-BDO/g-biomass/day and the “Specific Ethanol production rate” value amounted to 3.17 g ethanol/g-biomass/day. This compound also showed a Biomass in assay [3] (vitamin B5 feed rate 198 μg/g-cell produced, stable period day 6.0-8.0) of 10.62 g/L. Further, in assay [3] (setting [9]), the “2,3-BDO concentration” value is 7.0 g/L, the CO uptake is on record as 8.0 mol/L/day, the Ethanol concentration was 19.49 g/L and the “Specific 2,3-BDO production rate” value was 1.32 g 2,3-BDO/g biomass/day. The “Specific Ethanol production rate” value in assay [3] (setting [9]) came to 3.3 g ethanol/g biomass/day. The Biomass in assay [3] (vitamin B5 feed rate 2180 μg/g cell produced, after 10 fold increase on day 8.1) amounted to 10.4 g/L. For the same compound, in assay [4] (setting [10]), the “Specific 2,3-BDO production rate” value is recorded as 1.2 g/day per g-biomass and the “Specific Ethanol production rate” value turned out to be 2.4 g/day per g-biomass. Also, in assay [4] (setting [11]), the “2,3-BDO concentration” value worked out at 9 g/L and the CO uptake came to 9.4 mol/L/day.
As to `O=C(O)CCCC[C@@H]1SC[C@@H]2NC(=O)N[C@@H]21` [vitamin B7, Biotin], the “impact of increasing B7 on the specific ethanol production rate” value in assay [5] (B7 feed rate 90 to 980 μg/g cell produced) is listed as “does not impact”. In assay [5] (setting [12]), the “2,3-BDO concentration” value is given as 4.94 g/L, the Acetate concentration stood at 8.13 g/L, the Biomass is recorded as 9.42 g/L and the CO uptake amounted to 8.0 mol/L/day. Besides, in assay [5] (setting [12]), the Ethanol concentration is reported as 15.63 g/L, the “Specific 2,3-BDO production rate” value is recorded as 1.19 g 2,3-BDO/g biomass/day and the “Specific Ethanol production rate” value is recorded as 3.78 g ethanol/g biomass/day. Besides, in assay [5] (setting [13]), the “2,3-BDO concentration” value is 7.34 g/L, the Biomass came out at 9.23 g/L, the CO uptake is recorded as 7.6 mol/L/day and the Ethanol concentration is recorded as 14.92 g/L. For the same compound, in assay [5] (setting [13]), the “Specific 2,3-BDO production rate” value is on record as 1.97 g 2,3-BDO/g biomass/day and the “Specific Ethanol production rate” value is on record as 3.85 g ethanol/g biomass/day. Besides, in assay [5] (setting [14]), the “2,3-BDO concentration” value came out at 4.76 g/L, the Biomass is given as 10.53 g/L, the CO uptake turned out to be 7.6 mol/L/day and the Ethanol concentration stood at 15.70 g/L. Besides, in assay [5] (setting [14]), the “Specific 2,3-BDO production rate” value is 1.1 g 2,3-BDO/g biomass/day and the “Specific Ethanol production rate” value stood at 3.59 g ethanol/g biomass/day.
